Measurements: patent US9023789B2, “Amylin analogs and pharmaceutical compositions thereof” (Novo Nordisk A/S, priority 2012, dated 2015)
Converted amounts (≈) assume the structure as drawn. Read-outs that look alike come from different tables or passages of the source. Numbered stars: 1 amine (or outer) side, 2 acyl side, 3 side chain; on linkers, the order of the positions; unused ones are H or OH. Bridge positions count the residues as written; N and C are the ends. Side chains are listed from the residue outwards. Peptide text beside a SMILES is read from it. * marks the point of attachment. C20 diacid = O=C(O)CCCCCCCCCCCCCCCCCCC(=O)*; γGlu = O=C(O)[C@H](CCC(=O)[*:2])N[*:1]

Columns and labels:
[1] = ASSAY (IV) determination of solubility; type: physicochemical
How it was run: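 UPLC read-out of polypeptide concentration after centrifugation. Samples: aqueous polypeptide stock ([…]) + 100 mM buffer 1:1, glycylglycine pH 3.0–5.0 or bistrispropane pH 6.0–8.0; 18 h, RT.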

[2] = biological target: T1, rat calcitonin receptor (Rattus norvegicus, UniProt P32214); experiment: ASSAY (VIII) binding to the rat calcitonin receptor; settings: Table 7, read-out: rCTR bind IC50
T1 construct: expressed in transfected cells; host or cells: BHK tk'ts 13 (transient, FuGENE 6), membranes
T1 sequence (P32214 25-479 isoform P32214-2 limits assumed): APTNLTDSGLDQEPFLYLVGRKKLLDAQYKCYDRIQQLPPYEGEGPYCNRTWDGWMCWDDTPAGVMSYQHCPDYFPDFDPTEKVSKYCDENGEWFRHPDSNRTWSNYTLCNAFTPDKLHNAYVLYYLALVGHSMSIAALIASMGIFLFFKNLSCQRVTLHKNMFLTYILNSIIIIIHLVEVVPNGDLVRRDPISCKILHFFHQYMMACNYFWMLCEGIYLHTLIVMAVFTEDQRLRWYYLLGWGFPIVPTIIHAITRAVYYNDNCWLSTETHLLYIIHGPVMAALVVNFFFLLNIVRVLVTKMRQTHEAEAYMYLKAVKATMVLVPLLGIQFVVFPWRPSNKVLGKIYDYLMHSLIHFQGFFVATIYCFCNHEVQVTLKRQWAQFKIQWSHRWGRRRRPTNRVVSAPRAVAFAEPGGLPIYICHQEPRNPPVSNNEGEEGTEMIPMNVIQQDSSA
How it was run: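 Receptor source: membranes from transiently transfected BHK tk′ts 13 cells expressing rat calcitonin receptor, collected roughly 48 hours after transfection.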

[3] = biological target: T2, human amylin receptor (membranes from Amylin 3(a)/CRE-luc cells) (Homo sapiens, UniProt O60896+P30988); experiment: ASSAY (V) binding to the human amylin receptor (SPA, 125I-rat amylin);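 further: competition binding of cell membranes (35 ng/µL) mixed with SPA beads in 384-well plates at 40 µL total volume, read by scintillation counting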
T2 construct: expressed in transfected cells
T2 sequence (P30988 25-474): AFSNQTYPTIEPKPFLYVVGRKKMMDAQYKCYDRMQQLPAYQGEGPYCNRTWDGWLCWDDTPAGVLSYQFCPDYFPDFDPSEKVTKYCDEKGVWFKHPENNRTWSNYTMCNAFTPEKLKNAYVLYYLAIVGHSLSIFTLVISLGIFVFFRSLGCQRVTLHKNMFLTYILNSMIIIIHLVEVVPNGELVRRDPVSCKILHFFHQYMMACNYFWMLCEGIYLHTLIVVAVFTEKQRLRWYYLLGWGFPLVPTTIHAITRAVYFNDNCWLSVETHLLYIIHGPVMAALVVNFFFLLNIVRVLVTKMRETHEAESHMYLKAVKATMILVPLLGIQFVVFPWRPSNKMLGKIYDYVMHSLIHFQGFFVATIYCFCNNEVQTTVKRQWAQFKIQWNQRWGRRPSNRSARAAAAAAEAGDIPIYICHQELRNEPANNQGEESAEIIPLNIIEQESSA
T2 sequence (O60896 24-148 partner): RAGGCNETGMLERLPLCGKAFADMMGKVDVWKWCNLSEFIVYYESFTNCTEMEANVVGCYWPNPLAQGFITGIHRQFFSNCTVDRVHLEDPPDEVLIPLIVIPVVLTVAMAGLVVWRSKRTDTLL

[4] = biological target: T3, rat amylin receptor (rat calcitonin receptor + rat RAMP 3) (Rattus norvegicus, UniProt P32214+Q9JJ73); experiment: ASSAY (VI) binding to the rat amylin receptor; settings: for IC50: binding to rat amylin receptor, read-out: rAmylin-R bind IC50
T3 construct: expressed in transfected cells; host or cells: BHK tk'ts 13 (transient, FuGENE 6), membranes
T3 sequence (P32214 25-479 isoform P32214-2 limits assumed): T1 sequence (P32214 25-479 isoform P32214-2 limits assumed)
T3 sequence (Q9JJ73 23-147 partner): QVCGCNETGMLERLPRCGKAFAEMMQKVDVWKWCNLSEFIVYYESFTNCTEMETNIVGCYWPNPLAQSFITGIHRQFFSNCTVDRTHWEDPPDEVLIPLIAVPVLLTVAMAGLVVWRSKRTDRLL
How it was run: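 Membranes for this rat amylin receptor binding assay came from BHK tk′ts 13 cells. The cells were transiently transfected with rat calcitonin receptor using the FuGENE® 6 reagent from Roche, as the manufacturer recommends. The cells were collected approximately 48 hours after transfection, and membranes were then prepared.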

[5] = bistrispropane buffer, pH 6.5, read-out: Solubility pH 6.5 Concentration
[6] = bistrispropane buffer, pH 7.5, read-out: Solubility pH 7.5 Concentration
[7] = bistrispropane buffer, pH 6.0, read-out: Solubility pH 6.0 Concentration
[8] = bistrispropane buffer, pH 7.0, read-out: Solubility pH 7.0 Concentration
[9] = bistrispropane buffer, pH 8.0, read-out: Solubility pH 8.0 Concentration
[10] = glycylglycine buffer, pH 3.0, read-out: Solubility pH 3.0 Concentration
[11] = glycylglycine buffer, pH 4.0, read-out: Solubility pH 4.0 Concentration
[12] = glycylglycine buffer, pH 5.0, read-out: Solubility pH 5.0 Concentration
[13] = Table 5, selectivity, hCTR bind IC50 / hAmylin-R bind IC50
[14] = Table 5a, selectivity, hCTR bind IC50 / hAmylin-R bind IC50
[15] = Table 7, human binding selectivity, included for comparison
[16] = Table 7a (preferred compounds), human binding selectivity, included for comparison
[17] = ratio of human calcitonin receptor binding IC50 to human amylin receptor binding IC50
[18] = Table 7, rat binding selectivity, rCTR IC50 / rAmylin-R IC50
[19] = Table 7a (preferred compounds), rat binding selectivity, rCTR IC50 / rAmylin-R IC50
[20] = ratio of rCTR bind IC50 to rAmylin-R bind IC50
[21] = Table 5b, selectivity, hCTR bind IC50 / hAmylin-R bind IC50
[22] = Table 5c, selectivity, hCTR bind IC50 / hAmylin-R bind IC50

Row | solubility at 18 h [1, 5] | solubility at 18 h [1, 6] | solubility at 18 h [1, 7] | solubility at 18 h [1, 8] | solubility at 18 h [1, 9] | solubility at 18 h [1, 10] | solubility at 18 h [1, 11] | solubility at 18 h [1, 12] | IC50 [2] | Ratio hCT/hAmylin binding [3, 13] | Ratio hCT/hAmylin binding [3, 14] | Ratio hCT/hAmylin binding [3, 15] | Ratio hCT/hAmylin binding [3, 16] | Ratio hCT/hAmylin binding [3, 17] | IC50 ([4]; Table 7) | Ratio rCT/rAmylin binding [4, 18] | Ratio rCT/rAmylin binding [4, 19] | Ratio rCT/rAmylin binding [4, 20] | Ratio hCT/hAmylin binding [3, 21] | Ratio hCT/hAmylin binding [3, 22] | Structure (SMILES)
1 | ≥ 200 µM | ≥ 200 µM | ≥ 200 µM | ≥ 200 µM | ≥ 200 µM | ≥ 200 µM | ≥ 200 µM | ≥ 200 µM | 5.98 nM | 10.9 | 10.9 | 10.9 | 10.9 | 10.9 | 0.176 nM | 34.0 | 34.0 | 34.0 |  |  | CC[C@H](C)[C@H](NC(=O)[C@H](C)NC(=O)CNC(=O)[C@H](Cc1ccccc1)NC(=O)[C@H](CC(N)=O)NC(=O)[C@@H]1CCCN1C(=O)[C@H](CO)NC(=O)[C@H](CO)NC(=O)[C@H](Cc1c[nH]cn1)NC(=O)[C@H](CCCNC(=N)N)NC(=O)[C@H](CC(C)C)NC(=O)[C@H](Cc1ccccc1)NC(=O)[C@H](CCC(=O)O)NC(=O)[C@H](C)NC(=O)[C@H](CC(C)C)NC(=O)[C@H](CCCNC(=N)N)NC(=O)[C@H](CCC(N)=O)NC(=O)[C@@H](NC(=O)[C@H](C)NC(=O)[C@@H]1CSSC[C@H](NC(=O)[C@H](CCCCN)NC(=O)CC[C@H](NC(=O)CCCCCCCCCCCCCCCCCCC(=O)O)C(=O)O)C(=O)N[C@@H](CC(N)=O)C(=O)N[C@@H]([C@@H](C)O)C(=O)N[C@@H](C)C(=O)N[C@@H]([C@@H](C)O)C(=O)N1)[C@@H](C)O)C(=O)N1CCC[C@H]1C(=O)N[C@@H](CO)C(=O)N[C@@H](CO)C(=O)N[C@H](C(=O)N[C@@H](CC(N)=O)C(=O)N[C@H](C(=O)NCC(=O)N1CCC[C@H]1C(=O)N[C@@H](CC(N)=O)C(=O)N[C@H](C(=O)N[C@@H](Cc1ccc(O)cc1)C(N)=O)[C@@H](C)O)C(C)C)[C@@H](C)O [Example 32] ({C20 diacid-γGlu}-KCNTATCATQRLAEFLRHSSPNFGAIPSSTNVGPNTY-NH2; disulfide 2-7)
2 | ≥ 200 µM | ≥ 200 µM | ≥ 200 µM | ≥ 200 µM | 147 µM (≈ 654 µg/mL) | ≥ 200 µM | ≥ 200 µM | ≥ 200 µM | 15.4 nM | 38.6 | 38.6 | 38.6 | 38.6 | 38.6 | 0.339 nM | 45.5 | 45.5 | 45.5 | 38.6 | 38.6 | CC[C@H](C)[C@H](NC(=O)[C@H](C)NC(=O)CNC(=O)[C@H](Cc1ccccc1)NC(=O)[C@H](CC(N)=O)NC(=O)[C@@H]1CCCN1C(=O)[C@H](CO)NC(=O)[C@H](CO)NC(=O)[C@H](Cc1c[nH]cn1)NC(=O)[C@H](CCCNC(=N)N)NC(=O)[C@H](CC(C)C)NC(=O)[C@H](Cc1ccccc1)NC(=O)[C@H](CCC(=O)O)NC(=O)[C@H](C)NC(=O)[C@H](CC(C)C)NC(=O)[C@H](CCCNC(=N)N)NC(=O)[C@H](CCC(N)=O)NC(=O)[C@@H](NC(=O)[C@H](C)NC(=O)[C@@H]1CSSC[C@H](NC(=O)[C@@H](N)CCCCNC(=O)CC[C@H](NC(=O)CCCCCCCCCCCCCCCCCCC(=O)O)C(=O)O)C(=O)N[C@@H](CC(N)=O)C(=O)N[C@@H]([C@@H](C)O)C(=O)N[C@@H](C)C(=O)N[C@@H]([C@@H](C)O)C(=O)N1)[C@@H](C)O)C(=O)N1CCC[C@H]1C(=O)N[C@@H](CO)C(=O)N[C@@H](CO)C(=O)N[C@H](C(=O)N[C@@H](CC(N)=O)C(=O)N[C@H](C(=O)NCC(=O)N1CCC[C@H]1C(=O)N[C@@H](CCCNC(=N)N)C(=O)N[C@H](C(=O)N[C@@H](Cc1ccc(O)cc1)C(N)=O)[C@@H](C)O)C(C)C)[C@@H](C)O [Example 117] (H-K([γGlu-C20 diacid])CNTATCATQRLAEFLRHSSPNFGAIPSSTNVGPRTY-NH2; disulfide 2-7; N-terminus assumed)
3 | ≥ 200 µM | ≥ 200 µM | ≥ 200 µM | ≥ 200 µM | ≥ 200 µM | ≥ 200 µM | ≥ 200 µM | ≥ 200 µM | 223 nM | 280.0 | 280.0 | 280.0 | 280.0 | 280.0 | 0.93 nM | 239.5 | 239.5 | 239.5 | 280.0 | 280.0 | CC[C@H](C)[C@H](NC(=O)[C@H](C)NC(=O)CNC(=O)[C@H](Cc1ccccc1)NC(=O)[C@H](CC(N)=O)NC(=O)[C@@H]1CCCN1C(=O)[C@H](CO)NC(=O)[C@H](CO)NC(=O)[C@H](Cc1c[nH]cn1)NC(=O)[C@H](CCCNC(=N)N)NC(=O)[C@H](CC(C)C)NC(=O)[C@H](Cc1ccccc1)NC(=O)[C@H](CC(=O)O)NC(=O)[C@H](C)NC(=O)[C@H](CC(C)C)NC(=O)[C@H](CCCNC(=N)N)NC(=O)[C@H](CCC(N)=O)NC(=O)[C@@H](NC(=O)[C@H](C)NC(=O)[C@@H]1CSSC[C@H](NC(=O)[C@@H](N)CCCCNC(=O)CC[C@H](NC(=O)CC[C@H](NC(=O)CCCCCCCCCCCCCCCCCCC(=O)O)C(=O)O)C(=O)O)C(=O)N[C@@H](CC(N)=O)C(=O)N[C@@H]([C@@H](C)O)C(=O)N[C@@H](C)C(=O)N[C@@H]([C@@H](C)O)C(=O)N1)[C@@H](C)O)C(=O)N1CCC[C@H]1C(=O)N[C@@H](CO)C(=O)N[C@@H](CO)C(=O)N[C@H](C(=O)N[C@@H](CC(N)=O)C(=O)N[C@H](C(=O)NCC(=O)N1CCC[C@H]1C(=O)N[C@@H](CCCNC(=N)N)C(=O)N[C@H](C(=O)N[C@@H](Cc1ccc(O)cc1)C(N)=O)[C@@H](C)O)C(C)C)[C@@H](C)O [Example 130] (H-K([γGlu-γGlu-C20 diacid])CNTATCATQRLADFLRHSSPNFGAIPSSTNVGPRTY-NH2; disulfide 2-7 (inferred); N-terminus assumed)
